Source: ChEMBL document CHEMBL3045117, “Synthesis, crystal structures, insecticidal activities, and structure--activity relationships of novel N'-tert-Butyl-N'-substituted-benzoyl-N-[di(octa)hydro]benzofuran{(2,3-dihydro)benzo[1,3]([1,4])dioxine}carbohydrazide derivatives” (2011)

System: Mythimna separata
Experiment: Stomach toxicity against third-instar Mythimna separata (Oriental armyworm) in compound treated fresh corn leaves assessed as insecticidal activity at 50 mg/L measured after 4 days by leaf-dip method
Type: functional

Structure (SMILES)	Activity [%]
Cc1cc(C)cc(C(=O)N(NC(=O)c2ccccc2)C(C)(C)C)c1	100
Cc1cc(C)cc(C(=O)N(NC(=O)C2CCCCC2)C(C)(C)C)c1	20

System: Mythimna separata
Experiment: Stomach toxicity against third-instar Mythimna separata (Oriental armyworm) in compound treated fresh corn leaves assessed as insecticidal activity at 100 mg/L measured after 4 days by leaf-dip method
Type: functional

Structure (SMILES)	Activity [%]
Cc1cc(C)cc(C(=O)N(NC(=O)c2ccccc2)C(C)(C)C)c1	100
Cc1cc(C)cc(C(=O)N(NC(=O)C2CCCCC2)C(C)(C)C)c1	100

System: Mythimna separata
Experiment: Stomach toxicity against third-instar Mythimna separata (Oriental armyworm) in compound treated fresh corn leaves assessed as insecticidal activity at 25 mg/L measured after 4 days by leaf-dip method
Type: functional

Structure (SMILES)	Activity [%]
Cc1cc(C)cc(C(=O)N(NC(=O)c2ccccc2)C(C)(C)C)c1	100

System: Mythimna separata
Experiment: Stomach toxicity against third-instar Mythimna separata (Oriental armyworm) in compound treated fresh corn leaves assessed as insecticidal activity at 200 mg/L measured after 4 days by leaf-dip method
Type: functional

Structure (SMILES)	Activity [%]
Cc1cc2c(C(=O)NN(C(=O)c3ccc(Cl)cc3)C(C)(C)C)cccc2o1	0
Cc1cc(C)cc(C(=O)N(NC(=O)c2ccccc2)C(C)(C)C)c1	100
Cc1cc2c(C(=O)NN(C(=O)c3ccccc3Cl)C(C)(C)C)cccc2o1	0
Cc1cc2c(C(=O)NN(C(=O)c3cccc(Cl)c3)C(C)(C)C)cccc2o1	0
Cc1cc2c(C(=O)NN(C(=O)c3cc(Cl)cc(Cl)c3)C(C)(C)C)cccc2o1	0
Cc1cc2c(C(=O)NN(C(=O)c3cc([N+](=O)[O-])cc([N+](=O)[O-])c3)C(C)(C)C)cccc2o1	0
Cc1cc(C)cc(C(=O)N(NC(=O)c2cccc3c2OCCO3)C(C)(C)C)c1	0
Cc1cc(C)cc(C(=O)N(NC(=O)C2CCCC3OC(C)CC32)C(C)(C)C)c1 (stereo not given)	0
Cc1cc(C)cc(C(=O)N(NC(=O)C2CCCCC2)C(C)(C)C)c1	100

System: Mythimna separata
Experiment: Stomach toxicity against third-instar Mythimna separata (Oriental armyworm) in compound treated fresh corn leaves assessed as insecticidal activity at 10 mg/L measured after 4 days by leaf-dip method
Type: functional

Structure (SMILES)	Activity [%]
Cc1cc(C)cc(C(=O)N(NC(=O)c2ccccc2)C(C)(C)C)c1	80
